In ChEMBL document CHEMBL3639107, “Dioxa-bicyclo[3.2.1]octane-2,3,4-triol derivatives” (2014):
Values joined by “and” are separate entries in the source; they are usually repeats but may differ in a detail not shown here. Equal values may be shown once.

Biological target: T1, Sodium/glucose cotransporter 2 (Homo sapiens, UniProt P31639)
T1 sequence (P31639 whole entry): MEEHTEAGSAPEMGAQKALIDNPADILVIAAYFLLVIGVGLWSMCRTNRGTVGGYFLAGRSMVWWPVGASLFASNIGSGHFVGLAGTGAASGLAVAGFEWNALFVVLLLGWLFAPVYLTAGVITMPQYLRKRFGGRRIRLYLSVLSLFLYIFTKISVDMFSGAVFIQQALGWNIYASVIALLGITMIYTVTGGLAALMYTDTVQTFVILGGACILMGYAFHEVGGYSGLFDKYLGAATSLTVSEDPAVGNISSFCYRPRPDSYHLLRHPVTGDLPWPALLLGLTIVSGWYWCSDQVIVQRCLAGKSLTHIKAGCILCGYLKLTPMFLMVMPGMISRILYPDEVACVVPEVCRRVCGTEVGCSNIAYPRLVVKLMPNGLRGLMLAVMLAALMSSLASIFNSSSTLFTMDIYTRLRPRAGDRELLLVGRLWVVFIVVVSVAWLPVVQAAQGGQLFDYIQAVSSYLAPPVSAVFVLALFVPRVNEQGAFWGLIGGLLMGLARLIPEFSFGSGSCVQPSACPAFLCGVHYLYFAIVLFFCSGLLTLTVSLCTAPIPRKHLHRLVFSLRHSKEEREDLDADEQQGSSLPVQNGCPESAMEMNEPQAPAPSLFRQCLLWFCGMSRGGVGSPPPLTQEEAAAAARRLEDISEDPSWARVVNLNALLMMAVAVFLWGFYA
Test: Biological Assays: The SGLT2 functional assay was designed to detect the inhibition of methyl-alpha-D glucopyranoside (AMG a non-metabolizable form of glucose) uptake via the SGLT2 transporter. The SGLT2 transporter recovers glucose from the proximal tubules of the kidney; its inhibition results in sugar wasted in the urine. The positive control compound, Phlorizin, is a known inhibitor of glucose uptake for SGLT2 and was used for comparing the high percent effect of SGLT2 inhibition of the test compounds.

- IC50: 5 nM and 6.7 nM
SMILES: CCOc1ccc(Cc2cc([C@]34OC[C@](COC(C)=O)(O3)[C@@H](O)[C@H](O)[C@H]4O)ccc2Cl)cc1
